According to PubChem BioAssay (NCI):
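All cell lines were grown in 96-well plates and treated with compound for 48 hours. GI50: concentration for 50% inhibition of growth. TGI: concentration producing complete growth inhibition.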 Where a SMILES comes first, the peptide text is derived from it. The star is where a group is joined. Boc = CC(C)(C)OC(=O)*

Columns and labels:
Assay in all cases: DTP human tumour cell line panel, 48 h
LOX IMVI melanoma = system: LOX IMVI melanoma
SK-OV-3 ovarian = system: SK-OV-3 ovarian
CAKI-1 renal = system: CAKI-1 renal
SN12C renal = system: SN12C renal
HCT-116 colon = system: HCT-116 colon
K-562 leukemia = system: K-562 leukemia
SF-268 CNS = system: SF-268 CNS
OVCAR-4 ovarian = system: OVCAR-4 ovarian
RPMI-8226 leukemia = system: RPMI-8226 leukemia
HL-60(TB) leukemia = system: HL-60(TB) leukemia

SMILES | TGI (LOX IMVI melanoma) [µM] | TGI (SK-OV-3 ovarian) [µM] | TGI (CAKI-1 renal) [µM] | TGI (SN12C renal) [µM] | TGI (HCT-116 colon) [µM] | TGI (K-562 leukemia) [µM] | TGI (SF-268 CNS) [µM] | TGI (OVCAR-4 ovarian) [µM] | TGI (RPMI-8226 leukemia) [µM] | GI50 (HCT-116 colon) [µM] | TGI (HL-60(TB) leukemia) [µM]
COC(=O)CC1c2ccccc2N2C(=O)Cc3c([nH]c4ccccc34)C12 (stereo not drawn) | > 100 | > 100 | > 100 | > 100 | > 100 | > 100 | > 100 | > 100 | > 100 | – | –
O=C(NNC(=O)c1csc(NC(=S)NC2CCCCC2)n1)c1ccccc1 | 22 | 34.2 | 39.5 | 22.5 | 15.9 | – | > 100 | > 100 | 69.9 | – | –
Cc1cccc(N/C(Sc2ccccc2)=C(/C(Cl)=C(Cl)Cl)[N+](=O)[O-])c1 | – | 47.6 | 37.3 | 35.1 | 28.7 | 57.8 | 34.2 | 38.6 | > 100 | – | –
CCOC(=O)c1nnc2c(C#N)c(-c3ccccc3)c(C)n2c1N | > 100 | > 100 | > 100 | > 100 | > 100 | > 100 | > 100 | 43.6 | 53.9 | – | –
Cc1cnc2[nH]c(-c3ccc4ccccc4c3)cc(=O)c2c1 | > 100 | > 100 | – | > 100 | 14.5 | – | > 100 | > 100 | > 100 | 0.465 | –
CC1=C(C)SC(=C2Sc3nc(O)[nH]c(=O)c3S2)S1 | > 100 | > 100 | > 100 | > 100 | > 100 | > 100 | > 100 | > 100 | > 100 | – | –
COC(=O)[C@H](Cc1ccc(O)cc1)NC(=O)[C@H](Cc1ccc(O)cc1)NC(=O)OC(C)(C)C (Boc-Tyr-Tyr-OMe) | > 100 | > 100 | > 100 | – | > 100 | – | > 100 | – | – | – | –
COc1ccccc1C1c2cc3c(cc2OC(N2CCOCC2)C1C)OCO3 (stereo not drawn) | 35.2 | – | – | 38.1 | 26.2 | 24 | 40.9 | – | 45.7 | – | –
COC(=O)CCC(NC(=O)OC(C)(C)C)C(=O)NC(Cc1ccc(NC(=O)CCCC(C)=O)cc1)C(=O)NC(CCC(=O)OC)C(=O)OC (stereo not drawn) | > 100 | > 100 | > 100 | > 100 | > 100 | > 100 | > 100 | > 100 | > 100 | – | –
Cc1n(Cc2ccccc2)nc2sc(N)n[n+]12 | > 100 | > 100 | > 100 | > 100 | > 100 | > 100 | > 100 | > 100 | > 100 | – | –
CCOC(=O)c1cccc(NC(=O)CI)c1 | – | 2.26 | 1.07 | 0.731 | 0.946 | – | – | 3.02 | 3.28 | – | –
CCOc1ccc(N/C(=C(/C(Cl)=C(/Cl)NC(C)(C)C)[N+](=O)[O-])n2nnc3ccccc32)cc1 | – | > 100 | 35.3 | > 100 | 33.7 | > 100 | 42.7 | > 100 | > 100 | – | –
N#Cc1c(-c2ccccc2)c(CN2CCCCC2)c(=O)n2c1[nH]c1ccccc12 | 50.8 | > 100 | > 100 | > 100 | > 100 | 60.9 | > 100 | > 100 | – | – | –
CC(Oc1ccc(OCC2CCCCC2)cc1)C(=O)NCc1ccco1 (stereo not drawn) | 54.3 | > 100 | – | > 100 | 76.3 | > 100 | > 100 | > 100 | – | – | > 100
O=C1c2ccccc2N2Oc3ccccc3C12c1ccccc1 (stereo not drawn) | – | > 100 | – | > 100 | > 100 | > 100 | > 100 | > 100 | > 100 | – | > 100
Nc1nc(-c2ccco2)cc(-c2ccc(CO)o2)n1 | > 100 | – | – | > 100 | > 100 | > 100 | > 100 | > 100 | > 100 | – | > 100
CC(=O)OC(C)(C)CCC(=O)[C@](C)(O)[C@H]1[C@H](O)C[C@@]2(C)[C@@H]3CCc4c(cc(OC5OC(CO)C(O)C(O)C5O)c(O)c4C)C3(C)C(=O)C[C@]12C (stereo partly drawn) | > 100 | > 100 | > 100 | > 100 | > 100 | > 100 | > 100 | > 100 | – | – | –
CNC1(C(=O)O)CC1 | > 100 | – | – | > 100 | > 100 | > 100 | > 100 | > 100 | > 100 | – | > 100
Cc1ccc(N/C(SCc2ccccc2)=C(\C(Cl)=C(Cl)Cl)[N+](=O)[O-])c(C)c1 | – | > 100 | 50.8 | 43.8 | 37 | – | 29.8 | 54 | > 100 | – | –
CC[C@@]1(O)C(=O)OCc2c1cc1n(c2=O)Cc2c-1nc1ccccc1c2/C=N/NC(=O)c1ccc(N)cc1 | 0.5 | > 100 | 5.06 | 16.2 | 12 | > 31.6 | > 100 | > 100 | > 100 | – | –
